Reference: patent US10774064B2 (Cadent Therapeutics, Inc., priority 2016, dated 2020)

Biological target: T1, small-conductance Ca2+-activated K+ channels (SK channels, subtype 2) (Homo sapiens, UniProt Q9H2S1)
T1 construct: expressed in transfected cells; host or cells: HEK293
Assay: whole-cell patch-clamp of ionic current through SK2 channels in HEK293 cells (SC100)
Type: cell-based
Details: whole-cell patch-clamp, HEK293 cells expressing SK2 channels; concentration that increases the basal current by 100%
How it was run: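 SC100, the concentration doubling basal current (a 100% increase), was taken from SK2 currents recorded by whole-cell patch-clamp in SK2-expressing HEK293 cells.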

SMILES	SC100 (μM)
Cc1ccn(-c2nc(NC3CCC(F)(F)CC3)cc(N3CC(F)(F)OC(F)(F)C3)n2)n1 [IN11030-044-P1]	++ (++ means 200 nM-1000 nM)
CC(=O)c1cc(NC2CCC(F)(F)CC2)nc(-c2nc(C)cs2)n1 [IN11030-054-P1, 1-(6-((4,4-difluorocyclohexyl)amino)-2-(4-methylthiazol-2-yl)pyrimidin-4-yl) ethan-1-one]	+ (+ means >1 uM)
COc1cccc2c(NC3CCC(F)(F)CC3)nc(-c3nc(C)cs3)nc12 [IN11030-081-P1, N-(4,4-difluorocyclohexyl)-8-methoxy-2-(4-methylthiazol-2-yl) quinazolin-4-amine]	++ (++ means 200 nM-1000 nM)
Cc1csc(-c2nc(NC3CCC(F)(F)CC3)cc(C(C)(C)O)n2)n1 [IN11030-083-P1, 2-(6-((4,4-difluorocyclohexyl)amino)-2-(4-methylthiazol-2-yl)pyrimidin-4-yl) propan-2-ol]	++ (++ means 200 nM-1000 nM)
Cc1ccn(-c2nc(NC3CCC(F)(F)CC3)cc(OCCC#N)n2)n1 [IN11030-095-P1]	+ (+ means >1 uM)
Cc1ccn(-c2cc(COC(=O)N(C)C)cc(NC3CCC(F)(F)CC3)n2)n1 [IN11039-006-P1]	+++ (+++ means <200 nM)
COC(=O)NCCOc1cc(NC2CCC(F)(F)CC2)nc(-c2nc(C)cs2)n1 [IN11039-009-P1]	++ (++ means 200 nM-1000 nM)
COCCN(C)Cc1cc(NC2CCC(F)(F)CC2)nc(-n2ccc(C)n2)c1 [IN11039-017-P1]	++ (++ means 200 nM-1000 nM)
Cc1ccn(-c2cc(COC3CCCNC3)cc(NC3CCC(F)(F)CC3)n2)n1 (stereo not drawn) [IN11039-019-P1, N-(4,4-difluorocyclohexyl)-6-(3-methyl-1H-pyrazol-1-yl)-4-((piperidin-3-yloxy)methyl)pyridin-2-amine]	+++ (+++ means <200 nM)
Cc1ccn(-c2cc3ccccc3c(NC3CCC(F)(F)CC3)n2)n1 [IN11039-023-P1, N-(4,4-difluorocyclohexyl)-3-(3-methyl-1H-pyrazol-1-yl)isoquinolin-1-amine]	+ (+ means >1 uM)
CNCc1cc(NC2CCC(F)(F)CC2)nc(-n2ccc(C)n2)c1 [IN11039-026-P1]	++ (++ means 200 nM-1000 nM)
Cc1ccn(-c2cc3c(c(NC4CCC(F)(F)CC4)n2)CCCC3)n1 [IN11039-036-P1, N-(4,4-difluorocyclohexyl)-3-(3-methyl-1H-pyrazol-1-yl)-5,6,7,8-tetrahydro isoquinolin-1-amine]	+ (+ means >1 uM)
COc1nc(-c2nc(C)cs2)nc(NC2CCC(F)(F)CC2)c1F [IN11039-058-P1, N-(4,4-difluorocyclohexyl)-5-fluoro-6-methoxy-2-(4-methylthiazol-2-yl)pyrimidin-4-amine]	++ (++ means 200 nM-1000 nM)
Cc1ccn(-c2cc(COc3ncccc3C(C)O)cc(NC3CCC(F)(F)CC3)n2)n1 (stereo not drawn) [IN11039-066-P1]	+++ (+++ means <200 nM)
Cc1ccn(-c2cc(COc3ncccc3C(C)(C)O)cc(NC3CCC(F)(F)CC3)n2)n1 [IN11039-069-P1]	+++ (+++ means <200 nM)
Cc1csc(-c2nc(NC3CCC(F)(F)CC3)c(O)c(=O)[nH]2)n1 [IN11039-094-P1, 6-((4,4-difluorocyclohexyl)amino)-2-(4-methylthiazol-2-yl) pyrimidine-4,5-diol]	+ (+ means >1 uM)
COc1cc(NC2CCC(F)(F)CC2)nc(-n2ccc(C)n2)n1 [IN11053-005-P1]	+ (+ means >1 uM)
COCc1cc(NC2CCC(F)(F)CC2)nc(-n2ccc(C)n2)n1 [IN11053-007-P1, N-(4,4-difluorocyclohexyl)-6-(methoxymethyl)-2-(3-methyl-1H-pyrazol-1-yl)pyrimidin-4-amine]	+ (+ means >1 uM)
Cc1ccn(-c2nc(COc3ccc(C#N)cn3)cc(NC3CCC(F)(F)CC3)n2)n1 [IN11053-013-P1]	++ (++ means 200 nM-1000 nM)
Cc1ccn(-c2nc(NC3CCC(F)(F)CC3)cc(OC(C)C)n2)n1 [IN11053-021-P1]	+ (+ means >1 uM)
Cc1ccn(-c2nc(NC3CCC(F)(F)CC3)cc(OCc3ncco3)n2)n1 [IN11053-022-P1]	+ (+ means >1 uM)
Cc1ccn(-c2nc(NC3CCC(F)(F)CC3)cc(OCc3cocn3)n2)n1 [IN11053-024-P1]	+ (+ means >1 uM)
COC(=O)NCc1cc(NC2CCC(F)(F)CC2)nc(-n2ccc(C)n2)n1 [IN11053-033-P1, methyl ((6-((4,4-difluorocyclohexyl)amino)-2-(3-methyl-1H-pyrazol-1-yl)pyrimidin-4-yl)methyl) carbamate]	+ (+ means >1 uM)

SMILES	SC100 (μM)
Cc1ccn(-c2nc(COc3ccc(C(N)=O)nn3)cc(NC3CCC(F)(F)CC3)n2)n1 [IN11053-046-P1]	+++ (+++ means <200 nM)
C=Cc1cc(NC2CCC(F)(F)CC2)nc(-n2ccc(C)n2)n1 [IN11053-052-P1]	++ (++ means 200 nM-1000 nM)
CC(=O)c1cc(NC2CCC(F)(F)CC2)nc(-n2ccc(C(F)(F)F)n2)n1 [IN11053-059-P1, 1-(6-((4,4-difluorocyclohexyl)amino)-2-(3-(trifluoromethyl)-1H-pyrazol-1-yl)pyrimidin-4-yl)ethan-1-one]	+ (+ means >1 uM)
OCc1cc(NC2CCC(F)(F)CC2)nc(-n2ccc(C(F)(F)F)n2)n1 [IN11053-060-P1, (6-((4,4-difluorocyclohexyl)amino)-2-(3-(trifluoromethyl)-1H-pyrazol-1-yl)pyrimidin-4-yl) methanol]	++ (++ means 200 nM-1000 nM)
CC(O)c1cc(NC2CCC(F)(F)CC2)nc(-n2ccc(C(F)(F)F)n2)n1 (stereo not drawn) [IN11053-062-P1, 1-(6-((4,4-difluorocyclohexyl)amino)-2-(3-(trifluoromethyl)-1H-pyrazol-1-yl)pyrimidin-4-yl)ethan-1-ol]	+ (+ means >1 uM)
COCc1cc(NC2CCC(F)(F)CC2)nc(-n2ccc(C(F)(F)F)n2)n1 [IN11053-071-P1, N-(4,4-difluorocyclohexyl)-6-(methoxymethyl)-2-(3-(trifluoromethyl)-1H-pyrazol-1-yl)pyrimidin-4-amine]	+ (+ means >1 uM)
COC(C)c1cc(N(C)C2CCC(F)(F)CC2)nc(-n2ccc(C(F)(F)F)n2)n1 (stereo not drawn) [IN11053-073-P1, N-(4,4-difluorocyclohexyl)-6-(1-methoxyethyl)-N-methyl-2-(3-(trifluoromethyl)-1H-pyrazol-1-yl)pyrimidin-4-amine]	+ (+ means >1 uM)
COC(C)c1cc(NC2CCC(F)(F)CC2)nc(-n2ccc(C(F)(F)F)n2)n1 (stereo not drawn) [IN11053-076-P1, N-(4,4-difluorocyclohexyl)-6-(1-methoxyethyl)-2-(3-(trifluoromethyl)-1H-pyrazol-1-yl)pyrimidin-4-amine]	+ (+ means >1 uM)
Cc1ccn(-c2cc(C(C)OC(=O)N(C)C)cc(NC3CCC(F)(F)CC3)n2)n1 (stereo not drawn) [IN11054-003-P1, 1-(2-((4,4-difluorocyclohexyl)amino)-6-(3-methyl-1H-pyrazol-1-yl)pyridin-4-yl)ethyl dimethylcarbamate]	++ (++ means 200 nM-1000 nM)
COC(=O)NC(C)c1cc(NC2CCC(F)(F)CC2)nc(-n2ccc(C)n2)c1 (stereo not drawn) [IN11054-005-P1, methyl (1-(2-((4,4-difluorocyclohexyl)amino)-6-(3-methyl-1H-pyrazol-1-yl)pyridin-4-yl)ethyl) carbamate]	+ (+ means >1 uM)
Cc1ccn(-c2nc(NC3CCC(F)(F)CC3)cc(OCC(F)(F)F)n2)n1 [IN11054-011-P1]	+ (+ means >1 uM)
Cc1ccn(-c2nc(NC3CCC(F)(F)CC3)cc(OCc3cnco3)n2)n1 [IN11054-012-P1]	++ (++ means 200 nM-1000 nM)
Cc1ccn(-c2cc(NC3CCC(F)(F)CC3)nc(-n3ccc(C)n3)c2)n1 [IN11054-030-P1, N-(4,4-difluorocyclohexyl)-4,6-bis(3-methyl-1H-pyrazol-1-yl)pyridin-2-amine]	+ (+ means >1 uM)
COc1cc(NC2CCC(F)(F)CC2)nc(-n2nc(C)cc2C)c1 [IN11054-038-P1]	+ (+ means >1 uM)
CSc1cc(NC2CCC(F)(F)CC2)nc(-c2nc(C)cs2)n1 [IN11054-039-P1]	++ (++ means 200 nM-1000 nM)
Cc1csc(-c2nc(NC3CCC(F)(F)CC3)cc(S(C)(=O)=O)n2)n1 [IN11054-046-P1]	+ (+ means >1 uM)
Cc1csc(-c2nc(NC3CCC(F)(F)CC3)cc([S+](C)[O-])n2)n1 (stereo not drawn) [IN11054-046-P2]	++ (++ means 200 nM-1000 nM)
COc1cc(NC2CCC(F)(F)CC2)nc(-n2ccc(C)n2)c1 [IN11054-054-P1, N-(4,4-difluorocyclohexyl)-4-methoxy-6-(3-methyl-1H-pyrazol-1-yl)pyridin-2-amine]	++ (++ means 200 nM-1000 nM)
Cc1cc(C)n(-c2cc(C)c(CNC3CCC(F)(F)CC3)nn2)n1 [IN11054-078-P1, N-((6-(3,5-dimethyl-1H-pyrazol-1-yl)-4-methylpyridazin-3-yl)methyl)-4,4-difluorocyclohexan-1-amine]	+ (+ means >1 uM)
Cc1csc(-c2nc(NC3CCC(F)(F)CC3)cc(C3CCC3)n2)n1 [IN11054-081-P1, 6-cyclobutyl-N-(4,4-difluorocyclohexyl)-2-(4-methylthiazol-2-yl)pyrimidin-4-amine]	++ (++ means 200 nM-1000 nM)
CCOc1cc(NC2CCC(F)(F)CC2)nc(-c2nc(C)cs2)n1 [IN11055-015-P1]	+ (+ means >1 uM)
Cc1csc(-c2nc(NC3CCC(F)(F)CC3)cc(OC(C)C)n2)n1 [IN11055-016-P1]	+ (+ means >1 uM)
